Results reported in ChEMBL document CHEMBL1201862, “PubChem BioAssay data set” (2004).
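1) Cells in 96-well plates. 2) Compound, 48 h, 5 concentrations. 3) Linear interpolation between surrounding doses. 4) Unreached endpoint = highest concentration. Here, GI50 denotes the concentration required for 50% inhibition of growth.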 The source made the active and inactive calls. Rule as the data show it: active = GI50 up to about 1.1 µM and inactive = higher.

Legend:
Test in all cases: NCI tumour cell line growth inhibition, 48 h
[1] = tested on: MDA-N
[2] = tested on: RXF 393
[3] = tested on: SK-MEL-2
[4] = tested on: MOLT-4
[5] = tested on: NCI-H226
[6] = tested on: OVCAR-3
[7] = tested on: SK-MEL-28
[8] = tested on: OVCAR-8
[9] = tested on: SF-268
[10] = tested on: Malme-3M
[11] = tested on: HCT-15
[12] = tested on: HCT-116
[13] = tested on: DU-145
[14] = tested on: IGROV-1
[15] = tested on: HCC 2998
[16] = tested on: M14
[17] = tested on: SNB-75
[18] = tested on: PC-3
[19] = tested on: A549
[20] = tested on: BT-549

| SMILES | GI50 [1] | GI50 [2] | GI50 [3] | GI50 [4] | GI50 [5] | GI50 [6] | GI50 [7] | GI50 [8] | GI50 [9] | GI50 [10] | GI50 [11] [µM] | GI50 [12] | GI50 [13] | GI50 [14] | GI50 [15] | GI50 [16] | GI50 [17] | GI50 [18] | GI50 [19] | GI50 [20] |
| --- | --- | --- | --- | --- | --- | --- | --- | --- | --- | --- | --- | --- | --- | --- | --- | --- | --- | --- | --- | --- |
| O=C1c2ccccc2C(=O)c2c(NCCCNCCO)ccc(NCCCNCCO)c21 | 7.48 µM (inactive) | 4.69 µM (inactive) | 13.2 µM (inactive) | 3 µM (inactive) | 1.61 µM (inactive) | 5.71 µM (inactive) | 12 µM (inactive) | 7.74 µM (inactive) | 4.82 µM (inactive) | 13.9 µM (inactive) | 12.9 | 4.33 µM (inactive) | 10.2 µM (inactive) | 15.7 µM (inactive) | 5.37 µM (inactive) | 9.68 µM (inactive) | 7.13 µM (inactive) | 7.67 µM (inactive) | 11.5 µM (inactive) | 14.5 µM (inactive) |
| CCOC(=O)C(NC(=O)CC(C)C)(N1CCN(c2cc3c(cc2F)c(=O)c(C(=O)O)cn3C2CC2)CC1)C(F)(F)F (stereo not given) | 20.3 µM (inactive) | 17.2 µM (inactive) | 20 µM (inactive) | 5.71 µM (inactive) | 20.7 µM (inactive) | 14.7 µM (inactive) | 20.9 µM (inactive) | 21.1 µM (inactive) | 11.1 µM (inactive) | 17.6 µM (inactive) | 10 | 20.4 µM (inactive) | 34.4 µM (inactive) | 12.6 µM (inactive) | 12 µM (inactive) | 20 µM (inactive) | 21.4 µM (inactive) | 15 µM (inactive) | 27.5 µM (inactive) | 16.3 µM (inactive) |
| Cc1cccc(C)c1NC(=O)C(C#N)C1=C(Cl)C(=O)c2ccccc2C1=O (stereo not given) | 14.4 µM (inactive) | > 32.8 µM (inactive) | 14.4 µM (inactive) | 1.93 µM (inactive) | 12.1 µM (inactive) | 11.3 µM (inactive) | 20.2 µM (inactive) | 16.9 µM (inactive) | 15.5 µM (inactive) | 15.2 µM (inactive) | 19.1 | 15.4 µM (inactive) | 14.5 µM (inactive) | 17 µM (inactive) | 17.8 µM (inactive) | 10.1 µM (inactive) | 15.7 µM (inactive) | 13.8 µM (inactive) | 19.7 µM (inactive) | 14.6 µM (inactive) |
| Cc1ccc(/C=N/Nc2cc(C)c3ccccc3n2)s1 | 13.8 µM (inactive) | 23.3 µM (inactive) | 34.1 µM (inactive) | 1.42 µM (inactive) | 14 µM (inactive) | 2.65 µM (inactive) | 20.3 µM (inactive) | 23.2 µM (inactive) | 26.1 µM (inactive) | 5.75 µM (inactive) | 7.36 | 3.85 µM (inactive) | > 10 µM (inactive) | 10.2 µM (inactive) | 15.3 µM (inactive) | 13.7 µM (inactive) | 31.6 µM (inactive) | 14 µM (inactive) | 16.5 µM (inactive) | 21.3 µM (inactive) |
| CC(=O)O[C@H]1CC[C@@]2(C)C(=CC[C@H]3[C@@H]4C[C@H](N5CCOCC5)[C@H](OC(C)=O)[C@@]4(C)CC[C@@H]32)C1 | > 100 µM (inactive) | 42.4 µM (inactive) | > 100 µM (inactive) | > 100 µM (inactive) | > 100 µM (inactive) | > 100 µM (inactive) | > 100 µM (inactive) | > 100 µM (inactive) | > 100 µM (inactive) | > 100 µM (inactive) | > 100 | > 100 µM (inactive) | > 100 µM (inactive) | > 100 µM (inactive) | > 100 µM (inactive) | > 100 µM (inactive) | 71.6 µM (inactive) | > 100 µM (inactive) | > 100 µM (inactive) | > 100 µM (inactive) |
| CC1=C(C(=O)OCCc2ccc([N+](=O)[O-])cc2)C(c2ccccc2[N+](=O)[O-])C(C(=O)OC(C)C)=C(C)N1 (stereo not given) | 4.51 µM (inactive) | 3.22 µM (inactive) | 3.86 µM (inactive) | 1.99 µM (inactive) | 5.45 µM (inactive) | 5.08 µM (inactive) | 7.57 µM (inactive) | 3.66 µM (inactive) | 5.55 µM (inactive) | 7.19 µM (inactive) | 4.21 | 2.75 µM (inactive) | 9.04 µM (inactive) | 7.05 µM (inactive) | 7.43 µM (inactive) | 4.05 µM (inactive) | 4.24 µM (inactive) | 1.49 µM (inactive) | 2.96 µM (inactive) | 2.4 µM (inactive) |
| CC1CCC2C(C(=O)O[C@H]3C4C=CO[C@@H](OC5OC(CO)C(O)C(O)C5O)C4[C@@]4(CO)O[C@@H]34)=CO[C@@H](OC3OC(CO)C(O)C(O)C3O)C12 (stereo not given in full) | > 10 µM (inactive) | > 10 µM (inactive) | > 10 µM (inactive) | > 10 µM (inactive) | > 10 µM (inactive) | > 10 µM (inactive) | > 10 µM (inactive) | > 10 µM (inactive) | > 10 µM (inactive) | > 10 µM (inactive) | > 10 | > 10 µM (inactive) | > 10 µM (inactive) | > 10 µM (inactive) | > 10 µM (inactive) | > 10 µM (inactive) | > 10 µM (inactive) | > 10 µM (inactive) | > 10 µM (inactive) | > 10 µM (inactive) |
